Columns and labels:
Format in all cases: cell-based, human
[1] = test system: autologous T cells of healthy donors; design: key: +: positive response
[2] = test system: autologous T cells of healthy donors; design: key: +: positive response; remark: listed apart in the source
[3] = test system: autologous T cells of healthy donors; design: key: +: positive response; remark: listed apart in the source
[4] = test system: PBMC from SARS-CoV-2 convalescent donors
[5] = test system: autologous T cells of healthy donors; design: key: +: positive response; remark: listed apart in the source

| Sequence | ELISA [1] | Proliferation [2] | positive response detected on one time point with two different assays [3] | positive response detected on two time points with the same assay [3] | IFNγ ELISpot response [4] | ELISpot [5] | immunogenicity compared to the other SLPs [4] |
| --- | --- | --- | --- | --- | --- | --- | --- |
| LFARTRSMWSFNPETNILLNV [SLP 19] | + | + | + | + | high responses |  |  |
| ALNTLVKQLSSNFGAISSVLNDILSRLDKV [SLP 9] | + | + | + |  |  | + |  |
| PLVDLPIGINITRFQTLLALHRSYLTPGDSSSG [SLP 32] | + | + |  | + |  |  |  |
| GNGGDAALALLLLDRLNQLESKMSGKGQ [SLP 39] | + | + | + | + |  | + |  |
| IRQGTDYKHWPQIAQFAPSASAFFG [SLP 46] |  |  |  |  | high responses |  | remarkably immunogenic |

From patent publication US20230143215A1 (priority 2020, published 2023)
